One data set deals with DNMT1. Nature of the data set: Western blot in TRAMP C1 cells. The format is cell-based, mouse. As for the experimental part: (§1) The DIM used in the study contains approximately 98% of DIM purchased from Sigma-Aldrich t St. Louis, Mo., USA), TRAMP C1 cells (provided by Dr. Barbara Foster, Department of Pharmacology and Therapeutics, Roswell Park Cancer institute, Buffalo. NY), originally derived from TRAMP prostate tumor, were cultured in Dulbecco's Modified Eagle's Medium (Invitrogen Corp., Carlsbad, Calif. U.S.A.) supplemented with 10% (V/V) fetal bovine serum (FBS) (Invitrogen Corp., Grand Island, N.Y., U.S.A.), penicillin 100 U/ml, and streptomycin 100 μg/ml (Invitrogen Corp., Grand Island, N.Y., U.S.A.), Cells were maintained in a humidified incubator with 5% CO2 at 37° C. Cells were seeded in 10 cm plates for 24 h and then treated with 0.1% DMSO (control) or different concentrations of DIM in 1% FBS containing medium for 5 days. The medium was changed every 2 days (20), The TRAMP C1 cells or dorso-lateral prostate tissues collected from treated and control groups were pooled and homogenized with RIPA buffer (Cell Signaling Technology, Danvers, Mass., U.S.A.) and 10 μg/ml protease inhibitor cocktail (EMD Chemicals, Philadelphia, Pa., U.S.A.). Protein (20 μg) was loaded onto 4-15% SDS-PAGE (Bio-Rad Laboratories, Hercules, Calif., U.S.A.). After separation by SDS-PAGE, the protein was transferred onto nitrocellulose membrane (Millipore Corp., Billerica, Mass., U.S.A.), and then was blocked in 5% bovine serum albumin (BSA) (Fisher Scientific, Fair Law, J. U.S.A.) in tris buffer saline tween-20 (TBST) solution for 1 h. Membranes were probed using the different mono- or polyclonal-antibodies (1:1000) overnight at 4″C. Blots were washed with TBST solution for 15 min 4 times and incubated with the respective secondary antibodies for 1 hr. After washing min 4 times with TBST solution, the immunoreactive bands were determined by adding SuperSignal West Femto mix (1:1 mix of stable peroxide buffer and luminol/enhancer solution (Thermo Scientific, Rockford, Ill., U.S.A.) to detect immunoreactive bands. The bands were visualized and quantified by BioRad ChemiDoc XRS system (Hercules, Calif., U.S.A.). The primary antibodies used were β-actin, Nrf2, NQO1 (Santa Cruz Biotechnology, Santa Cruz, Calif., U.S.A.), HDAC1, HDAC2, HDAC3, HDAC4 (Cell Signaling Technology Inc., Danvers Mass., U.S.A.), HDAC8 (Proteintech Group Inc., Chicago, Ill., U.S.A.) and DNMT1, DNMT3a, DNMT3b (Imgenex, San Diego, Calif., U.S.A.). The secondary antibodies used were goat polyclonal IgG for β-actin and NQO1, rabbit polyclonal IgG for Nrf2, HDAC1, HDAC2, HDAC3, HDAC4 and HDAC8, and mouse polyclonal IgG for DNMT1, DNMT3a, DNMT3b (Santa Cruz Biotechnology, Santa Cruz, Calif., U.S.A.),
(A western blot detects proteins with antibodies after separation by electrophoresis.)

The subject of the next data set is HDAC3. Nature of the data set: Western blot in TRAMP C1 cells. The format is cell-based, mouse. As for the experimental part: as §1
The next data set relates to DNMT3b. Nature of the data set: Western blot in TRAMP C1 cells. The format is cell-based, mouse. As for the experimental part:
as §1

The next data set deals with HDAC2. Nature of the data set: Western blot in TRAMP C1 cells. The format is cell-based, mouse. As for the experimental part:
as §1

The test system of the next data set is NQO1. In words: Western blot in TRAMP C1 cells. The format is cell-based, mouse. How it is done:
as §1

The subject of another data set is Nrf2. Nature of the data set: Western blot in TRAMP C1 cells. The format is cell-based, mouse. As for the experimental part:
as §1

The subject of data set [1] is apoptotic cells in the dorso-lateral prostates. Nature of the data set: IHC staining of TRAMP prostate tissue, apoptosis (TUNEL). The format is in vivo, mouse. To be noted: D-G1 and D-G2 vs control, p<0.001. As for the experimental part: Sections (4 μm) were cut from the paraffin embedded prostate tissue and mounted on glass slides. The slides Were deparafinized in xylene and antigen unmasking was performed by applying proteinase K digestion directly on the slides for 15 min. Endogenous peroxidase was blocked by incubating in 3% […] for 5 min, and ApopTag Plus Peroxidase In Situ Apoptosis Detection Kit (Millipore, Temecula, Calif., U.S.A.) was used to detect apoptotic cells. For detection of proliferative cells, monoclonal mouse anti-proliferating cell nuclear antigen (PCNA) antibody (Clone PC10, 1:50, Dako North America, Carpinteria, Calif., U.S.A.) was used (12). The staining was performed following as the manufacturer's protocols. Anti-5-methylcytosine (5-MC) mouse monoclone antibody (Clone 162 33 D3, 1:50, EMD Chemicals, Philadelphia, Pa., U.S.A.) was used to detect genome-wide methylated DNA. […] Quantitation of IHC staining was done using the Aperio ScanScope® GL system according to the manufactures protocol (Aperio Technologies Inc., Vista, Calif., U.S.A.). […] The Aperio ImageScopoe software (v 10.1.3.2028) allowed the unbiased quantification and quantitative analysis of the IHC staining of biomarkers of prostate tumor samples obtained from untreated control versus the treated TRAMP mice.

The next data set concerns HepG2-C8 cells. In words: MTS cell viability assay. The format is cell-based, human. To be noted: Homo sapiens. As for the experimental part:
The stably transfected single clone HepG2-ARE-C8 (HepG2-C8) cell line has been established previously in our laboratory using the […]-luciferase reporter gene. The cells were maintained in Dulbecco's modified Eagle medium supplemented with 10% fetal bovine serum (FBS), 1.17 g/l sodium bicarbonate, and 100 unit/ml penicillin, 100 μg/ml streptomycin at 37° C. in a humidified incubator with 5% CO2. […] MTS] (Promega, Madison, Wis.). […] The cells were then treated with MTS for 1 h at 37° C. Absorbance of the formazan product was read at 490 nm with a μQuant Biomolecular Spectrophotometer from Bio-Tek Instruments Inc. (Winooski, Vt.). Independent control studies were conducted using 1% and 10% FBS medium.
A general note: Formazan colour is commonly taken as a measure of viable cells.

The conditions of data set [2]: oral, 2 mg/kg/day; cited from earlier work.

Read-outs that look alike come from different tables or passages of the source.

Turning to `c1ccc2c(Cc3c[nH]c4ccccc34)c[nH]c2c1` [DIM, 3,3′-diindolylmethane], in the data set on DNMT1, the DNMT1 protein level result is “suppressed”. For the same compound, the HDAC3 protein expression entry in the data set on HDAC3 is recorded as “suppress”. For the same compound, the DNMT3b protein level entry in the data set with DNMT3b is listed as “suppressed”. Further, the HDAC2 protein expression entry with HDAC2 is “suppress”. Further, in the data set on NQO1, the NQO1 protein levels result is reported as “significantly induced”. Also, the Nrf2 protein levels result in the data set with Nrf2 is “significantly induced”. Further, in data set [1], the “percent of apoptotic cells” value is “significantly higher”. In addition, the IC50 was 51 µM in the data set with HepG2-C8 cells (HepG2C8, 1% FBS medium, read-out: cell viability inhibitory concentrations (IC50)) and approximately 85 µM in the data set on HepG2-C8 cells (HepG2C8, 10% FBS medium (data not shown), read-out: cell viability IC50). Further, in data set [2], the tolerability result is reported as “well tolerated with no significant toxicity”.

These data come from patent US8916604B2, “Compositions and methods for epigenetic modification of nucleic acid sequences” (Rutgers, The State University of New Jersey, priority 2011, dated 2014).
